Source: patent US10364226B2, “Pyridazinone compounds and uses thereof” (priority 2013, dated 2019)

Experiments:
EN PA = EN PA (Influenza A virus, UniProt P15659); assay: EN PA FRET Inhibition Assay; assay type: biochemical; details: read-out: Potency
[1] = tested on: Influenza strain A549 A/WSN/33 (H1N1); assay: Influenza Antiviral Assay; assay type: cell-based, Influenza A virus; details: Influenza A virus, A549, 20 h, neuraminidase fluorescence readout, read-out: % Inhibition

SMILES	IC50 (EN PA) [nM]	EC50 [1] [nM]
O=C(O)c1nn(CC2(c3cccc(Br)c3)CCCC2)cc(O)c1=O [Compound 683]	< 100	> 100000
CNC(=O)c1nn(CC(c2ccccc2)c2ccccc2)cc(O)c1=O [Compound 660]	100 to 1000	> 100000
NC(=O)c1nn(CC2(n3cc(Cl)c4cccnc43)CCCC2)cc(O)c1=O [Compound 758]	< 100	< 20000
CNC(=O)c1nn(CC2(n3ccc4ccc(C)nc43)CCCC2)cc(O)c1=O [Compound 853]	< 100	< 20000
O=C(O)c1nn(-c2ccccc2C(F)(F)F)cc(O)c1=O [Compound 7]	100 to 1000	> 100000
O=C(NC1CCCCC1)c1nn(CC2(c3cccc(C(F)(F)F)c3)CCCC2)cc(O)c1=O [Compound 516]	100 to 1000	< 20000
O=C(O)c1nn(-c2ccccc2OC(F)(F)F)cc(O)c1=O [Compound 21]	< 100	> 100000
CNC(=O)c1nn(CC2(n3c4c(c5cccnc53)CCC4)CCCC2)cc(O)c1=O [Compound 813]	< 100	< 20000
CC(C)(C)NC(=O)c1nn(CC2(c3ccc4ccccc4c3)CCCC2)cc(O)c1=O [Compound 829]	< 100	< 20000
CNC(=O)c1nn(-c2ccccc2-c2ccccc2-c2ccccc2)cc(O)c1=O [Compound 518]	100 to 1000	< 20000
CNC(=O)c1nn(CC2(n3ccc4c(Cl)cccc43)CCCC2)cc(O)c1=O [Compound 856]	< 100	< 20000
CNC(=O)c1nn(CC2(c3cn(C)c4ccccc34)CCCC2)cc(O)c1=O [Compound 830]	100 to 1000	> 100000
O=C(O)c1nn(Cc2ccccc2-c2ccccc2)cc(O)c1=O [Compound 403]	< 100	> 100000
CC1(C)CC(Cn2cc(O)c(=O)c(C(=O)NCc3ccccc3)n2)(c2ccccc2)C1 [Compound 798]	100 to 1000	> 100000
CON(C)C(=O)c1nn(CC2(n3cc(C)c4cccnc43)CCCC2)cc(O)c1=O [Compound 774]	< 100	< 20000
O=C(O)c1nn(-c2ccccc2-c2ccc3[nH]ccc3c2)cc(O)c1=O [Compound 320]	100 to 1000	> 100000
O=C(O)c1nn(-c2ccc(F)cc2)cc(O)c1=O [Compound 4]	100 to 1000	> 100000
Cc1csc(CNC(=O)c2nn(CC3(c4cccc(C(F)(F)F)c4)CCCC3)cc(O)c2=O)c1 [Compound 663]	100 to 1000	> 100000
CNC(=O)c1nn(CCN(c2ccccc2)c2ccccc2)cc(O)c1=O [Compound 834]	100 to 1000	> 100000
Cc1ccc(C(C)(C)Cn2cc(O)c(=O)c(C(=O)O)n2)cc1 [Compound 416]	< 100	20000 to 100000
CNC(=O)c1nn(CC(c2ccccc2)C2CCCCC2)cc(O)c1=O (stereo not shown) [Compound 659]	100 to 1000	> 100000
CNC(=O)c1nn(CC2(c3ccc(-c4ccccc4)cc3)CCCC2)cc(O)c1=O [Compound 686]	100 to 1000	< 20000
CS(=O)(=O)Nc1cccc(-n2cc(O)c(=O)c(C(=O)O)n2)c1 [Compound 17]	100 to 1000	> 100000

SMILES	IC50 (EN PA) [nM]	EC50 [1] [nM]
Cc1ccc(OC(C)C)c(-c2ccccc2-n2cc(O)c(=O)c(C(=O)O)n2)c1 [Compound 314]	100 to 1000	> 100000
CNC(=O)c1nn(CC2(n3ccc4ccc(F)cc43)CCCC2)cc(O)c1=O [Compound 861]	< 100	< 20000
Cc1cn(C2(Cn3cc(O)c(=O)c(C(=O)NC(C)(C)CNC(=O)OC(C)(C)C)n3)CCCC2)c2ncccc12 [Compound 863]	100 to 1000	< 20000
CNC(=O)c1nn(CC2(n3cc(C)c4cccnc43)C[C@@H]3[C@@H](CO)[C@@H]3C2)cc(O)c1=O (stereo partly shown) [Compound 885]	100 to 1000	> 100000
CNC(=O)c1nn(CC2(n3cc(OC)c4cccnc43)CCCC2)cc(O)c1=O [Compound 892]	< 100	< 20000
CC1(C)CC(Cn2cc(O)c(=O)c(C(=O)NCc3ccc(F)c(Cl)c3)n2)(c2ccccc2)C1 [Compound 799]	< 100	< 20000
CCNC(=O)c1nn(CC2(n3cc(Cl)c4cccnc43)CCCC2)cc(O)c1=O [Compound 753]	< 100	< 20000
CNC(=O)c1nn(CC2(c3ccc4cccnc4c3)CCCC2)cc(O)c1=O [Compound 849]	< 100	< 20000
O=C(NCc1ccncc1)c1nn(CC2(c3ccccc3)CCCC2)cc(O)c1=O [Compound 692]	< 100	< 20000
CNC(=O)c1nn(CC2(c3ccc(F)c(C(F)(F)F)c3)CCCC2)cc(O)c1=O [Compound 783]	< 100	< 20000
CNC(=O)c1nn(CC2(c3ccc4c(C)cccc4c3)CCCC2)cc(O)c1=O [Compound 897]	< 100	< 20000
CN(Cc1ccccc1-n1cc(O)c(=O)c(C(=O)O)n1)C1CCCCC1 [Compound 19]	100 to 1000	> 100000
CNC(=O)c1nn(-c2ccccc2-c2ccccc2C(C)C)cc(O)c1=O [Compound 519]	100 to 1000	20000 to 100000
O=C(O)c1nn(-c2ccc3c(c2)CCC3)cc(O)c1=O [Compound 10]	100 to 1000	> 100000
CNC(=O)c1nn(CC2(n3cc(C)c4cccnc43)CCCC2)cc(OC(C)=O)c1=O [Compound 662]	< 100	< 20000
O=C1NCCCCCOc2cccc(c2)C2(CCCC2)Cn2cc(O)c(=O)c1n2 [Compound 895]	< 100	< 20000
CNC(=O)c1nn(CC2(n3ccc4c(C)cccc43)CCCC2)cc(O)c1=O [Compound 857]	< 100	< 20000
CCOC(=O)c1nn(CC2(c3cccc(C(F)(F)F)c3)CCCC2)cc(O)c1=O [Compound 405]	≥ 1000	< 20000
CCn1cc(C2(Cn3cc(O)c(=O)c(C(=O)NC)n3)CCCC2)c2ccccc21 [Compound 862]	100 to 1000	> 100000
O=C(NC1CC1)c1nn(CC2(c3cccc(C(F)(F)F)c3)CCCC2)cc(O)c1=O [Compound 507]	100 to 1000	< 20000
CNC(=O)c1nn(CC2(n3cc(C)c4cc(Cl)ccc43)CCCC2)cc(O)c1=O [Compound 898]	< 100	< 20000
CN(C)C(=O)c1nn(CC2(c3cccc(C(F)(F)F)c3)CCCC2)cc(O)c1=O [Compound 504]	≥ 1000	20000 to 100000
CNC(=O)c1nn(CCn2c3ccccc3c3ccccc32)cc(O)c1=O [Compound 835]	100 to 1000	> 100000

SMILES	IC50 (EN PA) [nM]	EC50 [1] [nM]
CNC(=O)c1nn(-c2ccccc2-c2ccc3[nH]ccc3c2)cc(O)c1=O [Compound 613]	≥ 1000	> 100000
CNC(=O)c1nn(CC2(c3cccc4c3cnn4C)CCCC2)cc(O)c1=O [Compound 881]	< 100	< 20000
CS(=O)(=O)NC(=O)c1nn(CC2(c3cccc(C(F)(F)F)c3)CCCC2)cc(O)c1=O [Compound 512]	100 to 1000	< 20000
CNC(=O)c1nn(CC2(c3ccc(C(C)C)cc3)CCCC2)cc(O)c1=O [Compound 687]	< 100	< 20000
CNC(=O)c1nn(CC2(c3cc(C(F)(F)F)cc(C(F)(F)F)c3)CCCC2)cc(O)c1=O [Compound 506]	100 to 1000	< 20000
O=C(NC1CCC1)c1nn(CC2(c3cccc(C(F)(F)F)c3)CCCC2)cc(O)c1=O [Compound 515]	100 to 1000	> 100000
CNC(=O)c1nn(CC2(n3cc(C(F)(F)F)c4cccnc43)CCCC2)cc(O)c1=O [Compound 681]	< 100	< 20000
COc1ccc(CNC(=O)c2nn(CC3(c4cccc(C(F)(F)F)c4)CCCC3)cc(O)c2=O)cc1 [Compound 525]	100 to 1000	< 20000
C=Cc1ccc(C2(Cn3cc(O)c(=O)c(C(=O)NC)n3)CCCC2)cc1 [Compound 762]	< 100	< 20000
O=C(O)c1nn(-c2ccccc2N2CCCC(c3ccccc3)C2)cc(O)c1=O (stereo not shown) [Compound 211]	100 to 1000	20000 to 100000
O=C(c1nn(CC2(n3cc(Cl)c4cccnc43)CCCC2)cc(O)c1=O)N1CCC1 [Compound 794]	< 100	< 20000
CNC(=O)c1nn(CC2(Cn3cc(C)c4cccnc43)CCCC2)cc(O)c1=O [Compound 858]	100 to 1000	> 100000
O=C(Nc1ccc(Cl)cc1)c1nn(CC2(c3ccccc3)CCCC2)cc(O)c1=O [Compound 720]	< 100	> 100000
CNC(=O)c1nn(CC2(n3ccc4cc(C5CC5)cnc43)CCCC2)cc(O)c1=O [Compound 754]	< 100	< 20000
O=C(O)c1nn(-c2ccccc2S(=O)(=O)c2ccccc2)cc(O)c1=O [Compound 24]	< 100	> 100000
O=C(NCc1cccnc1)c1nn(CC2(c3ccccc3)CCCC2)cc(O)c1=O [Compound 664]	100 to 1000	> 100000
CNC(=O)c1nn(CC2(n3cc(C(N)=O)c4cccnc43)CCCC2)cc(O)c1=O [Compound 883]	< 100	> 100000
O=C(O)c1nn(-c2cccc(Oc3ccccc3)c2)cc(O)c1=O [Compound 6]	100 to 1000	> 100000
CNC(=O)c1nn(CC2(c3cccc(-c4ccsc4)c3)CC2)cc(O)c1=O [Compound 724]		> 100000
COc1ccc(NC(=O)c2nn(CC3(c4ccccc4)CCCC3)cc(O)c2=O)cc1OC [Compound 705]		> 100000
CNC(=O)c1nn(CC2(c3ccc(-c4cncc(F)c4)cc3)CCCC2)cc(O)c1=O [Compound 763]		< 20000
CNC(=O)c1nn(CC2(c3ccc(-c4ccc(OC)nc4)cc3)CCCC2)cc(O)c1=O [Compound 770]		< 20000
O=C(Nc1ccc(Oc2ccccc2)cc1)c1nn(CC2(c3ccccc3)CCCC2)cc(O)c1=O [Compound 696]		> 100000
